Reference: ChEMBL document CHEMBL1201862, “PubChem BioAssay data set” (2004)
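Cultured in 96-well plates, cells were exposed to test compound for 48 hours across five concentrations. The concentration for 50% growth inhibition is given as GI50.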 Activity calls are given as the source filed them. Rule as the data show it: active = GI50 up to about 1.1 µM and inactive = higher.

Key:
Experiment in all cases: NCI tumour cell line growth inhibition, 48 h
786-0 = test system: 786-0
A498 = test system: A498
A549 = test system: A549
ACHN = test system: ACHN
BT-549 = test system: BT-549
CAKI-1 = test system: CAKI-1
CCRF-CEM = test system: CCRF-CEM
COLO 205 = test system: COLO 205
DU-145 = test system: DU-145
EKVX = test system: EKVX
HCT-116 = test system: HCT-116
HCT-15 = test system: HCT-15
HL-60 = test system: HL-60
HOP-62 = test system: HOP-62
HOP-92 = test system: HOP-92
HT-29 = test system: HT-29
Hs-578T = test system: Hs-578T
IGROV-1 = test system: IGROV-1
KM12 = test system: KM12
LOX IMVI = test system: LOX IMVI
M14 = test system: M14
MCF7 = test system: MCF7
MDA-MB-231 = test system: MDA-MB-231
MDA-MB-435 = test system: MDA-MB-435
MDA-N = test system: MDA-N
MOLT-4 = test system: MOLT-4
NCI-H226 = test system: NCI-H226
NCI-H23 = test system: NCI-H23
NCI-H460 = test system: NCI-H460
NCI-H522 = test system: NCI-H522
NCI/ADR-RES = test system: NCI/ADR-RES
OVCAR-3 = test system: OVCAR-3
OVCAR-4 = test system: OVCAR-4
OVCAR-5 = test system: OVCAR-5
OVCAR-8 = test system: OVCAR-8
PC-3 = test system: PC-3
SF-268 = test system: SF-268
SF-295 = test system: SF-295
SF-539 = test system: SF-539
SK-MEL-28 = test system: SK-MEL-28
SK-MEL-2 = test system: SK-MEL-2
SK-MEL-5 = test system: SK-MEL-5
SK-OV-3 = test system: SK-OV-3
SN12C = test system: SN12C
SNB-19 = test system: SNB-19
SNB-75 = test system: SNB-75
SW-620 = test system: SW-620
T47D = test system: T47D
TK-10 = test system: TK-10
U-251 = test system: U-251
UACC-257 = test system: UACC-257
UACC-62 = test system: UACC-62
UO-31 = test system: UO-31
K562 = test system: K562
Malme-3M = test system: Malme-3M
RPMI-8226 = test system: RPMI-8226
RXF 393 = test system: RXF 393

Question: Which results are given for `CC(=O)NC1C(OCc2ccccc2)OC(CO)C(O)C1OC(C)C(=O)NC(C(=O)NC(CCC(=O)NCCCNc1ccc([N+](=O)[O-])c2[nH]c3ccccc3c(=O)c12)C(N)=O)C(C)C` (stereo unspecified)?
Answer: GI50 (786-0): > 100 µM (inactive); GI50 (A498): > 100 µM (inactive); GI50 (A549): > 100 µM (inactive); GI50 (ACHN): > 100 µM (inactive); GI50 (BT-549): > 100 µM (inactive); GI50 (CAKI-1): > 100 µM (inactive); GI50 (CCRF-CEM): > 100 µM (inactive); GI50 (COLO 205): > 100 µM (inactive); GI50 (DU-145): > 100 µM (inactive); GI50 (EKVX): > 100 µM (inactive); GI50 (HCT-116): > 100 µM (inactive); GI50 (HCT-15): > 100 µM; GI50 (HL-60): > 100 µM (inactive); GI50 (HOP-62): > 100 µM (inactive); GI50 (HOP-92): > 100 µM (inactive); GI50 (HT-29): > 100 µM (inactive); GI50 (Hs-578T): > 100 µM (inactive); GI50 (IGROV-1): > 100 µM (inactive); GI50 (KM12): > 100 µM (inactive); GI50 (LOX IMVI): > 100 µM (inactive); GI50 (M14): 51.9 µM (inactive); GI50 (MCF7): > 100 µM (inactive); GI50 (MDA-MB-231): 40.6 µM (inactive); GI50 (MDA-MB-435): > 100 µM (inactive); GI50 (MDA-N): > 100 µM (inactive); GI50 (MOLT-4): > 100 µM (inactive); GI50 (NCI-H226): > 100 µM (inactive); GI50 (NCI-H23): > 100 µM (inactive); GI50 (NCI-H460): > 100 µM (inactive); GI50 (NCI-H522): 91.6 µM (inactive); GI50 (NCI/ADR-RES): > 100 µM (inactive); GI50 (OVCAR-3): > 100 µM (inactive); GI50 (OVCAR-4): > 100 µM (inactive); GI50 (OVCAR-5): 59.6 µM (inactive); GI50 (OVCAR-8): > 100 µM (inactive); GI50 (PC-3): > 100 µM (inactive); GI50 (SF-268): > 100 µM (inactive); GI50 (SF-295): > 100 µM (inactive); GI50 (SF-539): > 100 µM (inactive); GI50 (SK-MEL-28): > 100 µM (inactive); GI50 (SK-MEL-2): > 100 µM (inactive); GI50 (SK-MEL-5): > 100 µM (inactive); GI50 (SK-OV-3): > 100 µM (inactive); GI50 (SN12C): > 100 µM (inactive); GI50 (SNB-19): > 100 µM (inactive); GI50 (SNB-75): > 100 µM (inactive); GI50 (SW-620): > 100 µM (inactive); GI50 (T47D): > 100 µM (inactive); GI50 (TK-10): > 100 µM (inactive); GI50 (U-251): > 100 µM (inactive); GI50 (UACC-257): > 100 µM (inactive); GI50 (UACC-62): > 100 µM (inactive); GI50 (UO-31): > 100 µM (inactive)

Question: What does the source list for `CCc1n[nH]c(=O)n1/N=C(\C)c1ccccc1`?
Answer: GI50 (786-0): > 100 µM (inactive); GI50 (A498): > 100 µM (inactive); GI50 (A549): > 100 µM (inactive); GI50 (ACHN): > 100 µM (inactive); GI50 (BT-549): > 100 µM (inactive); GI50 (CAKI-1): > 100 µM (inactive); GI50 (CCRF-CEM): > 100 µM (inactive); GI50 (COLO 205): > 100 µM (inactive); GI50 (DU-145): > 100 µM (inactive); GI50 (EKVX): 68.5 µM (inactive); GI50 (HCT-116): > 100 µM (inactive); GI50 (HCT-15): > 100 µM; GI50 (HL-60): > 100 µM (inactive); GI50 (HOP-62): > 100 µM (inactive); GI50 (HT-29): > 100 µM (inactive); GI50 (Hs-578T): > 100 µM (inactive); GI50 (IGROV-1): > 100 µM (inactive); GI50 (K562): > 100 µM (inactive); GI50 (KM12): > 100 µM (inactive); GI50 (LOX IMVI): > 100 µM (inactive); GI50 (M14): > 100 µM (inactive); GI50 (MCF7): > 100 µM (inactive); GI50 (MDA-MB-231): > 100 µM (inactive); GI50 (MDA-MB-435): > 100 µM (inactive); GI50 (MDA-N): > 100 µM (inactive); GI50 (MOLT-4): > 100 µM (inactive); GI50 (Malme-3M): > 100 µM (inactive); GI50 (NCI-H226): > 100 µM (inactive); GI50 (NCI-H23): > 100 µM (inactive); GI50 (NCI-H522): > 100 µM (inactive); GI50 (NCI/ADR-RES): > 100 µM (inactive); GI50 (OVCAR-3): > 100 µM (inactive); GI50 (OVCAR-4): > 100 µM (inactive); GI50 (OVCAR-5): > 100 µM (inactive); GI50 (OVCAR-8): > 100 µM (inactive); GI50 (PC-3): > 100 µM (inactive); GI50 (RPMI-8226): > 100 µM (inactive); GI50 (RXF 393): > 100 µM (inactive); GI50 (SF-268): > 100 µM (inactive); GI50 (SF-295): > 100 µM (inactive); GI50 (SF-539): > 100 µM (inactive); GI50 (SK-MEL-28): > 100 µM (inactive); GI50 (SK-MEL-2): > 100 µM (inactive); GI50 (SK-MEL-5): > 100 µM (inactive); GI50 (SN12C): > 100 µM (inactive); GI50 (SNB-19): > 100 µM (inactive); GI50 (SW-620): > 100 µM (inactive); GI50 (T47D): > 100 µM (inactive); GI50 (TK-10): > 100 µM (inactive); GI50 (U-251): > 100 µM (inactive); GI50 (UACC-257): > 100 µM (inactive); GI50 (UACC-62): > 100 µM (inactive); GI50 (UO-31): > 100 µM (inactive)
